From patent US20260166128A1, “HUMAN AMYLIN ANALOG, AND DERIVATIVE THEREOF AND USE THEREOF” (priority 2022, published 2026) come the findings set out here.

Numbered stars: 1 amine (or outer) side, 2 acyl side, 3 side chain; on linkers, the order of the positions; unused ones are H or OH. Bridge positions count the residues as written; N and C are the ends. Square brackets hold non-standard residues; d marks the D form. Side chains are listed from the residue outwards. Peptide text beside a SMILES is read from it. * marks the point of attachment. C20 diacid = O=C(O)CCCCCCCCCCCCCCCCCCC(=O)*; C18 diacid = O=C(O)CCCCCCCCCCCCCCCCC(=O)*; γGlu = O=C(O)[C@H](CCC(=O)[*:2])N[*:1]; Hyp = O=C(O)[C@@H]1C[C@@H](O)CN1; Dab = NCC[C@H](N)C(=O)O; AEEA = NCCOCCOCC(=O)O

The assay has as its target T1, human amylin receptor (Homo sapiens, UniProt O60896+P30988).
T1 construct: host or cells: CHO-K1/Ga15/AMY3 cells, further stably transfected with a CRE-luciferase plasmid
T1 sequence (P30988 25-474): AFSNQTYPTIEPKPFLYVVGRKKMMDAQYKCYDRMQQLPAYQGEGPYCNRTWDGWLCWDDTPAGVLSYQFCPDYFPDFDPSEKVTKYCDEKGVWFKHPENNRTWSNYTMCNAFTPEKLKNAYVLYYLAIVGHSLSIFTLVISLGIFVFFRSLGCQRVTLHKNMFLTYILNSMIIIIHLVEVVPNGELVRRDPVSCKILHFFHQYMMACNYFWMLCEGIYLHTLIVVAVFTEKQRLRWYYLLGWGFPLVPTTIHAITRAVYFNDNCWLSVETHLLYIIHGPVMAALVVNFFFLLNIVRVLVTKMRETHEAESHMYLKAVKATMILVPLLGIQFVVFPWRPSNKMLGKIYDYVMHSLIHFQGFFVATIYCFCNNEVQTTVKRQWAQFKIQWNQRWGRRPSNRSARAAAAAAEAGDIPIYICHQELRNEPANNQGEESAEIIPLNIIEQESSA
T1 sequence (O60896 24-148 partner): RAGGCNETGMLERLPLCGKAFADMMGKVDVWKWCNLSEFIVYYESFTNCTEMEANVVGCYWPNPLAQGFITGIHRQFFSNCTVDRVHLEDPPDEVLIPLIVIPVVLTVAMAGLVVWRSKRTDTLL
Nature of the assay: Luciferase assay of amylin derivatives in amylin receptor/CRE-luc CHO cell line. The format is cell-based. To be noted: CHO-K1/Ga15/AMY3 CRE-luc cells, 24 hours incubation, F12 medium containing 10% FBS; read-out: EC50.
Protocol: The experiment was intended to detect the activity or efficacy of the amylin derivatives on a human amylin receptor in vitro by luciferase assay.
50 μL of growth medium (F12 medium containing 10% FBS) was added into each well of a white 96-well plate, and the stably transfected amylin/CRE-lue CHO cells were inoculated into the white 96-well plate at a density of about 20,000 cells/well for activity determination.
What is called EC50 is the midpoint of the concentration-response curve. Turning to `CC[C@H](C)[C@H](NC(=O)[C@@H]1CCCN1C(=O)CNC(=O)[C@H](CC(C)C)NC(=O)[C@H](CC(N)=O)NC(=O)[C@H](CC(N)=O)NC(=O)[C@H](CCCCNC(=O)COCCOCCNC(=O)COCCOCCNC(=O)CC[C@H](NC(=O)CCCCCCCCCCCCCCCCC(=O)O)C(=O)O)NC(=O)[C@H](CO)NC(=O)[C@H](Cc1c[nH]cn1)NC(=O)[C@H](CCCNC(=N)N)NC(=O)[C@H](CC(C)C)NC(=O)[C@H](Cc1ccccc1)NC(=O)[C@H](CC(=O)O)NC(=O)[C@H](C)NC(=O)[C@H](CC(C)C)NC(=O)[C@H](CCCNC(=N)N)NC(=O)[C@H](CCC(N)=O)NC(=O)[C@@H](NC(=O)[C@H](C)NC(=O)[C@@H]1CSSC[C@H](NC(=O)[C@@H](N)CCCNC(=N)N)C(=O)N[C@@H](CC(N)=O)C(=O)N[C@@H]([C@@H](C)O)C(=O)N[C@@H](C)C(=O)N[C@@H]([C@@H](C)O)C(=O)N1)[C@@H](C)O)C(=O)N[C@@H](CC(C)C)C(=O)N1CCC[C@H]1C(=O)N1CCC[C@H]1C(=O)N[C@H](C(=O)N[C@@H](CC(N)=O)C(=O)N[C@H](C(=O)NCC(=O)N[C@@H](CO)C(=O)N[C@@H](CC(N)=O)C(=O)N[C@H](C(=O)N1C[C@H](O)C[C@H]1C(N)=O)[C@@H](C)O)C(C)C)[C@@H](C)O` [PD097] (H-RCNTATCATQRLADFLRHSK([AEEA-AEEA-γGlu-C18 diacid])NNLGPILPPTNVGSNT[Hyp]-NH2; disulfide 2-7), the EC50 came out at 0.014 nM.
On to `CC[C@H](C)[C@H](NC(=O)[C@@H]1CCCN1C(=O)[C@H](CCCCNC(=O)CC[C@H](NC(=O)CCCCCCCCCCCCCCCCCCC(=O)O)C(=O)O)NC(=O)[C@H](CC(C)C)NC(=O)[C@H](CC(N)=O)NC(=O)[C@H](CC(N)=O)NC(=O)[C@H](CO)NC(=O)[C@H](CO)NC(=O)[C@H](Cc1c[nH]cn1)NC(=O)[C@H](CCCNC(=N)N)NC(=O)[C@H](CC(C)C)NC(=O)[C@H](Cc1ccccc1)NC(=O)[C@H](CC(=O)O)NC(=O)[C@H](C)NC(=O)[C@H](CC(C)C)NC(=O)[C@H](CCCNC(=N)N)NC(=O)[C@H](CCC(N)=O)NC(=O)[C@@H](NC(=O)[C@H](C)NC(=O)[C@@H]1CSSC[C@H](NC(=O)[C@@H](N)CCN)C(=O)N[C@@H](CC(N)=O)C(=O)N[C@@H]([C@@H](C)O)C(=O)N[C@@H](C)C(=O)N[C@@H]([C@@H](C)O)C(=O)N1)[C@@H](C)O)C(=O)N[C@@H](CC(C)C)C(=O)N1CCC[C@H]1C(=O)N1CCC[C@H]1C(=O)N[C@H](C(=O)N[C@@H](CC(N)=O)C(=O)N[C@H](C(=O)NCC(=O)N[C@@H](CO)C(=O)N[C@@H](CC(N)=O)C(=O)N[C@H](C(=O)N1C[C@H](O)C[C@H]1C(N)=O)[C@@H](C)O)C(C)C)[C@@H](C)O` [PD074] (H-[Dab]CNTATCATQRLADFLRHSSNNLK([γGlu-C20 diacid])PILPPTNVGSNT[Hyp]-NH2; disulfide 2-7), for which the EC50 worked out at 0.066 nM.
As for `CC[C@H](C)[C@H](NC(=O)[C@@H]1CCCN1C(=O)CNC(=O)[C@H](CC(C)C)NC(=O)[C@H](CC(N)=O)NC(=O)[C@H](CC(N)=O)NC(=O)[C@H](CO)NC(=O)[C@H](CCCCNC(=O)COCCOCCNC(=O)COCCOCCNC(=O)CC[C@H](NC(=O)CCCCCCCCCCCCCCCCCCC(=O)O)C(=O)O)NC(=O)[C@H](Cc1c[nH]cn1)NC(=O)[C@H](CCCNC(=N)N)NC(=O)[C@H](CC(C)C)NC(=O)[C@H](Cc1ccccc1)NC(=O)[C@H](CC(=O)O)NC(=O)[C@H](C)NC(=O)[C@H](CC(C)C)NC(=O)[C@H](CCCNC(=N)N)NC(=O)[C@H](CCC(N)=O)NC(=O)[C@@H](NC(=O)[C@H](C)NC(=O)[C@@H]1CSSC[C@H](NC(=O)[C@@H](N)CCCNC(=N)N)C(=O)N[C@@H](CC(N)=O)C(=O)N[C@@H]([C@@H](C)O)C(=O)N[C@@H](C)C(=O)N[C@@H]([C@@H](C)O)C(=O)N1)[C@@H](C)O)C(=O)N[C@@H](CC(C)C)C(=O)N1CCC[C@H]1C(=O)N1CCC[C@H]1C(=O)N[C@H](C(=O)N[C@@H](CC(N)=O)C(=O)N[C@H](C(=O)NCC(=O)N[C@@H](CO)C(=O)N[C@@H](CC(N)=O)C(=O)N[C@H](C(=O)N1C[C@H](O)C[C@H]1C(N)=O)[C@@H](C)O)C(C)C)[C@@H](C)O` [PD099] (H-RCNTATCATQRLADFLRHK([AEEA-AEEA-γGlu-C20 diacid])SNNLGPILPPTNVGSNT[Hyp]-NH2; disulfide 2-7), the figure is 0.033 nM; as for `CC[C@H](C)[C@H](NC(=O)[C@@H]1CCCN1C(=O)[C@H](CCCCN)NC(=O)[C@H](CC(C)C)NC(=O)[C@H](CC(N)=O)NC(=O)[C@H](CC(N)=O)NC(=O)[C@H](CO)NC(=O)[C@H](CO)NC(=O)[C@H](Cc1c[nH]cn1)NC(=O)[C@H](CCCNC(=N)N)NC(=O)[C@H](CC(C)C)NC(=O)[C@H](Cc1ccccc1)NC(=O)[C@H](CC(=O)O)NC(=O)[C@H](C)NC(=O)[C@H](CC(C)C)NC(=O)[C@H](CCCNC(=N)N)NC(=O)[C@H](CCC(N)=O)NC(=O)[C@@H](NC(=O)[C@H](C)NC(=O)[C@@H]1CSSC[C@H](NC(=O)[C@H](CCCCN)NC(=O)CC[C@H](NC(=O)CCCCCCCCCCCCCCCCCCC(=O)O)C(=O)O)C(=O)N[C@@H](CC(N)=O)C(=O)N[C@@H]([C@@H](C)O)C(=O)N[C@@H](C)C(=O)N[C@@H]([C@@H](C)O)C(=O)N1)[C@@H](C)O)C(=O)N[C@@H](CC(C)C)C(=O)N1CCC[C@H]1C(=O)N1CCC[C@H]1C(=O)N[C@H](C(=O)N[C@@H](CC(N)=O)C(=O)N[C@H](C(=O)NCC(=O)N[C@@H](CO)C(=O)N[C@@H](CC(N)=O)C(=O)N[C@H](C(=O)N1C[C@H](O)C[C@H]1C(N)=O)[C@@H](C)O)C(C)C)[C@@H](C)O` [PD071] ({C20 diacid-γGlu}-KCNTATCATQRLADFLRHSSNNLKPILPPTNVGSNT[Hyp]-NH2; disulfide 2-7 (inferred)), 0.028 nM; as for `CC[C@H](C)[C@H](NC(=O)[C@@H]1CCCN1C(=O)CNC(=O)[C@H](CC(C)C)NC(=O)[C@H](CCCCNC(=O)COCCOCCNC(=O)COCCOCCNC(=O)CC[C@H](NC(=O)CCCCCCCCCCCCCCCCC(=O)O)C(=O)O)NC(=O)[C@H](CC(N)=O)NC(=O)[C@H](CO)NC(=O)[C@H](CO)NC(=O)[C@H](Cc1c[nH]cn1)NC(=O)[C@H](CCCNC(=N)N)NC(=O)[C@H](CC(C)C)NC(=O)[C@H](Cc1ccccc1)NC(=O)[C@H](CC(=O)O)NC(=O)[C@H](C)NC(=O)[C@H](CC(C)C)NC(=O)[C@H](CCCNC(=N)N)NC(=O)[C@H](CCC(N)=O)NC(=O)[C@@H](NC(=O)[C@H](C)NC(=O)[C@@H]1CSSC[C@H](NC(=O)[C@@H](N)CCCNC(=N)N)C(=O)N[C@@H](CC(N)=O)C(=O)N[C@@H]([C@@H](C)O)C(=O)N[C@@H](C)C(=O)N[C@@H]([C@@H](C)O)C(=O)N1)[C@@H](C)O)C(=O)N[C@@H](CC(C)C)C(=O)N1CCC[C@H]1C(=O)N1CCC[C@H]1C(=O)N[C@H](C(=O)N[C@@H](CC(N)=O)C(=O)N[C@H](C(=O)NCC(=O)N[C@@H](CO)C(=O)N[C@@H](CC(N)=O)C(=O)N[C@H](C(=O)N1C[C@H](O)C[C@H]1C(N)=O)[C@@H](C)O)C(C)C)[C@@H](C)O` [PD089] (H-RCNTATCATQRLADFLRHSSNK([AEEA-AEEA-γGlu-C18 diacid])LGPILPPTNVGSNT[Hyp]-NH2; disulfide 2-7), 0.018 nM.
